Results on five compounds are retold here after patent US20250360106A1, “PREVENTING IMMUNOTHERAPY-INDUCED EDEMA USING ANGIOTENSIN RECEPTOR BLOCKERS” (The General Hospital Corporation, priority 2022, published 2025).

Entries after “also recorded” stand apart in the source; their conditions may differ.

Data set [1] concerns GL261 tumors. As to the kind of experiment: Tumor edema by wet/dry weight (water content), GL261 model. Conditions: mice under anti-PD1 treatment. The format is in vivo. The method, then:
(§1) Edema in the tumor was assessed immediately after animal sacrifice via wet/dry weight analysis to determine the water content as previously described (43).

Data set [2] relates to GBM cells. Conditions: at physiological levels; cited from earlier work.
Data set [3] has as its system GBM patients. Conditions: human, in vivo; cited from earlier work.
Data set [4] concerns 005 GSC. Briefly: Tumor edema by wet/dry weight, 005 GSC model. Conditions: after 2 weeks of treatment. It is filed as in vivo, mice. The method, then:
as §1

The test system of data set [5] is GL261. Briefly: Survival study, GL261 model. Conditions: losartan with anti-PD1, no detectable tumors over 100 days. It is filed as in vivo, mice. On the procedure:
(§2) Brain tumor implantation in the forebrain (50,000-100,000 cells), cranial window surgery and tumor resection as part of the standard of care treatment regimen were conducted as previously described (16, 43, 45). Mice were allowed to recover for 10-14 days after cranial window surgery prior to tumor implantation, and for 2 days after resection surgery (as part of the standard of care or bihemispheric model) prior to treatment initiation.

Data set [6] deals with 005 GSC. As to the kind of experiment: Survival study, 005 GSC model. The format is in vivo, mice. Conditions: losartan with anti-PD1, no detectable tumors over 100 days. The method, then: as §2
For data set [7], the system named is CT2A. Briefly: Survival study, CT2A model. The format is in vivo, mice. On the procedure:
as §2

The test system of data set [8] is GL261. As to the kind of experiment: Survival study, GL261 model with standard of care (resection, radiation, temozolomide). The format is in vivo, mice. On the procedure:
as §2

Data set [9] has as its system glioblastoma. Briefly: Survival of mice with glioblastoma under losartan and ICB (summary statement). Conditions: losartan with ICB, in lieu of corticosteroids. The format is in vivo.
In data set [10] the test system is MT-MMP-1 and -2 (Mt1, Mt2). As to the kind of experiment: scRNASeq of tumor endothelial cells (TECs) from GL261 tumors. It is filed as in vivo, mice. The method, then: Following the single-cell suspension techniques of flow cytometry, tumor cells were blocked in 1% bovine serum albumin in phosphate-buffered saline solution (1% BSA/PBS). Cell suspensions were subsequently stained for flow cytometry for 30 min at 4° C. using antibodies specific for CD45 [30F11]-VioBlue from Miltenyi, CD3 [145-2C11]-PE from Biolegends, and CD 31 [MEC 13.3]-PE from BD Biosciences. Cells were washed with cold PBS, and then incubated for 15 min in 1.5 mL of 1% BSA/PBS containing 1 uM calcein AM (Life Technologies) and 0.33 uM TO-PRO-3 iodide (Life Technologies). Sorting was performed with the FACS Aria Fusion Special Order System (Becton Dickinson) using 488 nm (calcein AM, 530/30 filter; CD3-PE, 585/42 filter), 640 nm (TO-PRO-3, 670/14 filter), and 405 nm (CD45-VioBlue, 450/50 filter) lasers. […]
Sequencing data was processed from raw reads to gene expression matrices, starting with fbcl2fastq (v2.20.0) to generate demultiplexed FASTQ files. Bowtie was used to align the resulting paired-end scRNA-seq reads to the mouse transcriptome (mm10). Gene expression levels were quantified as transcripts-per-million (TPM) by running RSEM (v1.2.19) in paired-end mode. […]

The test system of data set [11] is GL261 tumors. As to the kind of experiment: Bulk RNASeq of GL261 tumors. It is filed as in vivo, mice.
The test system of data set [12] is hyaluronic acid (HA). As to the kind of experiment: Hyaluronic acid immunofluorescent imaging, GL261. The format is in vivo, mice. Conditions: 2 weeks of losartan, n=5. The text has this: (§3) Brains with tumors were prepped and stained for histology as previously described (45) and imaged on a TissueFAXS (TissueGnostics) slide scanner at the Ragon Institute, Massachusetts Institute of Technology.

Data set [13] concerns GL261. As to the kind of experiment: Solid stress by 3D micro-ultrasound tissue deformation, GL261. The format is in vivo, mice. Conditions: 2 weeks of losartan, n=4. The source says:
Tumor size was visualized by 3D micro-ultrasound in anesthetized mice through the transparent cranial windows (45). Ultrasound was also used to measure tumor deformation as a readout of solid stress, following previous methods (14).

Data set [14] relates to PD-L1. As to the kind of experiment: PD-L1 immunohistochemistry, GL261. The format is in vivo, mice. Conditions: 2 weeks of losartan, n=11-13.
From the text: as §3

Data set [15] has as its system GL261 tumor blood vessels. As to the kind of experiment: OCT imaging of tumor perfusion. It is filed as in vivo, mice. Conditions: vs PBS-treated controls. The source says:
In vivo imaging of perfused vessels was achieved via a custom-built optical coherence tomography (OCT) system as previously described (15). […] A depth-resolved profile was generated each day, and the raw tomograms were processed as previously described. Images across multiple days were co-registered using the Scale-invariant feature transform (SIFT) algorithm in ImageJ and Python.

Data set [16] concerns GL261 tumors. As to the kind of experiment: Flow cytometry of tumors and cervical draining lymph nodes, GL261. The format is in vivo, mice. Background: Flow cytometry measures light scatter and fluorescence of single cells or particles in a stream.
Description: Single-cell suspensions were prepared from tumors and cervical draining lymph nodes that were isolated and dissected under stereotactic microscope. Cells were stained and processed (on a BD LSRFortessa X-20 Cell analyzer) and analyzed (FlowJo, Tree Star) as previously described (16). The following antibodies from BD Biosciences, EBioscience, and BioLegend were used at 1:200 dilutions: CD45-BV605, CD3-BV785, CD4-BV640, CD8-BV711A, NK1.1-APC; FoxP3-BV421; PD1-PerCP710A; TIGIT-PE Cy7; TIM3-PE; CD19-BV510; K167-FITC; GranzymeB-PE Cy7; CD11 b-BV785; MHCII-BV605; F4/80-PerCP Cy5.5; CX3CR1-APC; CD206-PE CY7; CD86-BV650; CCR2-PE; GR1-AF700.
Data set [17] concerns GBM. Conditions: in combination with the standard of care; cited from earlier work.
In data set [18] the test system is GBM patients. Briefly: Patient overall survival, Kaplan-Meier (trial NCT00662506). The format is in vivo, human. Conditions: cediranib, patients not on ASIs; n=33.
The subject of data set [19] is recurrent GBM patient. Briefly: MR T2-FLAIR imaging of a recurrent GBM patient before and after anti-PD-L1. It is filed as in vivo, human. Conditions: after 4 months of anti-PD-L1 treatment; NCT02336165.
[20] abbreviates: GL261, standard of care + anti-PD1 + losartan.

Regarding `CNC(=O)[C@H](Cc1c[nH]c2ccccc12)NC(=O)[C@@H](CC(=O)NO)CC(C)C` [Ilomastat], the anti-PD1-induced edema result in [1] is “controls anti-PD1-induced edema comparably to losartan; also recorded: phenocopied the ability of losartan to prevent anti-PD1-induced edema”. Besides, the “toxicity to GBM cells” value in [2] is “non-toxic”.
As for bevacizumab, the “OS in GBM patients under ICB therapy” value in data set [3] is “failed to improve OS”.
Regarding `CCCCc1nc(Cl)c(CO)n1Cc1ccc(-c2ccccc2-c2nn[nH]n2)cc1` [losartan], the anti-PD1-induced edema entry in [1] and in [4] was “decreases anti-PD1-induced edema” in each case. Also, the “long-term survivors (LTS)” value in data set [5] turned out to be 15%; in data set [6], 22%. For the same compound, the “effect of adding losartan to anti-PD1 on survival” value in data set [7] was “failed to further enhance ICB efficacy”. The “OS under the standard of care without ICB” value in [8] (GBM mouse models, losartan not given in conjunction with ICB) is reported as “does not improve OS”. Also, in [8] (setting [20]), the long-term survivors is listed as 43%. Moreover, in data set [8] (setting [20]), the “tumor re-challenge of long-term survivors” value is “rejected tumor re-challenge”. The mice cured stood at 40% in data set [8] (losartan with ICB in combination with standard of care treatment) and 20% in [9]. Besides, the “TEC MT-MMP-1 and -2 (Mt1, Mt2) expression” value in [10] was “downregulating”. In addition, in data set [11] (bulk RNASeq), the “global and pro-tumor (M2-like) TAM-associated genes” value is listed as “reduced the expression”. Besides, in data set [11] (bulk RNASeq), the microglia-associated genes result was “upregulated”. In addition, the “gene expression related to ECM, angiogenesis, immunosuppression, and hypoxia” value in data set [11] (vs controls, n=3) was “significantly reduced”. In addition, the HA levels entry in [12] is listed as “reduces”. Also, in data set [13], the “solid stress (tissue deformation)” value is given as “reduces”. The PD-L1 protein expression entry in data set [14] is “reduces”. Moreover, in data set [15], the “tumor vessel normalization and perfusion” value is “greater overall perfusion”. Further, in [16], the “myeloid cells in tumors” value is “fewer myeloid cells”. For the same compound, the “median OS” value in data set [17] was “failed to improve median OS”.
The compound `COc1cc2c(Oc3ccc4[nH]c(C)cc4c3F)ncnc2cc1OCCCN1CCCC1` [cediranib] had an overall survival in [18] of 527 days.
For “MEDI4763: anti-PD-L1 (NCT02336165) given to a recurrent GBM patient”, in [19], the “edema on MR T2-FLAIR images” value is listed as “increased edema”.
